Measured values: patent US11634447B2 (priority 2012, dated 2023)

Each compound was assayed on bacterial strain LF82 binding to the glycoprotein BSA-(Mannose)3 (assay: Bacterial Binding Assay (BBA)). Conditions: read-out: Bacterial Binding Assay IC50, LF82/Luciferase strain binding to BSA-(Man)3 coated plates, luminescence.
Type: cell-based, Escherichia coli
Excerpt: The purpose of the Bacterial Binding Assay (BBA) is to determine the inhibition activity of
selective FimH antagonists on the bacterial strain LF82 binding to the glycoprotein BSA-(Mannose)3.
Below is a list of the Materials used to run the BBA are described below. • 1. LB broth: Supplier: Gibco, #10855 • 2. D-PBS: Supplier: Wisent, #311-425-CL • 3. LB agar plates • 4. 96-well black plate (high binding): Supplier: Costar, #3925 • 5. TopSeal™-A adhesive sealing films; Supplier PerkinElmer, #6005185 • 6. Carbonate-bicarbonate buffer pH 9.6 tablets, Supplier: Medicago, #09-8922-24 • 7. Water, Supplier: Gibco, #15230-162 • 8. Bovine serum albumin (BSA): Supplier: Sigma, #A-7888 • 9. (Man)3-BSA (α1-3, α1-6 Mannotriose-BSA, 1 mg), V-Labs, #NGP1336, lot #HGDX37-169-1 • 10. Tween 20: Supplier: Sigma, #P9416 • 11. Bright-Glo Luciferase Assay System: Supplier: Promega, #E2610 • 12. LF82/Luciferase strain: Invasive ability of an Escherichia coli strain isolated from the ileal mucosa of a patient with Crohn ? disease. Boudeau J, Glasser A L, Masseret E, Joly B, Darfeuille-Michaud A, Infect Immun. 1999, 67(9), 4499-509
Solutions and buffers used to run the BBA are described below. • 1. 0.04M carbonate-bicarbonate buffer (coating buffer) • 2. 40 μg/mL BSA-(Man)3: Dissolve 1 mg of (Man)3-BSA in 25 mL of water. • 3. 4000 μg/mL BSA • 4. 40 μg/mL BSA • 5. 1 μg/mL BSA-(Man)3: 150 μL of 40 μg/mL BSA-(Man)3+5.85 mL of 40 μg/mL BSA • 6. 0.5 μg/mL BSA-(Man)3 in 0.02M carbonate-bicarbonate buffer. • 7. 20 μg/mL BSA in 0.02M carbonate-bicarbonate buffer • 8. Blocking buffer (2% BSA/DPBS): 1 g of BSA in 50 mL D-PBS • 9. 2× binding buffer (0.2% BSA/D-PBS): 5 mL of blocking buffer+45 mL D-PBS. • 10. Washing buffer (D-PBS/0.01% Tween 20): 10 μL of Tween 20 in 100 mL D-PBS. • 11. 1× Bright-Glo Luciferase substrate: Dilute 1:1 the Bright-Glo Luciferase Assay System with D-PBS The experimental protocol to run the BBA is described below.
Overnight culture of LF82/Luciferase strain: Into two Falcon 50 mL tubes, add 20 mL of LB+20 μL of 50 mg/mL Kanamycin and inoculate with a loop from glycerol stock of the LF82/Luciferase strain. Incubate overnight at 37° C. with no shaking.
Glycoprotein coating of 96-well plates: Add 100 μL/well of 0.5-2 μg/mL BSA-(Man)3. 20 μg/mL BSA is used as the control background. Seal plate using an adhesive sealing film and incubate overnight at room temperature. Wash the 96-well plate three times with 150 μL/well of D-PBS, add 170 μL/well of blocking solution and incubate 45 min (minimum) at room temperature.
Preparation of bacterial suspension: Mix the two cultures tubes (40 mL) and perform a 1:10 dilution in LB (900 μl LB+100 μl culture. Measure optical density (OD) of the bacterial cultures. OD1 ˜5×10^8 cells/mL. Centrifuge LF82 culture for 20 min at 3500 rpm at room temperature. Re-suspend bacterial pellet in D-PBS and centrifuge again for 20 min at 3500 rpm. Re-suspend bacterial pellet in D-PBS to obtain a bacterial concentration of 2×10^9 bacteria/mL. Dilute 1/10 in D-PBS to obtain a final bacterial concentration of 2×10^8 bacteria/mL (=107 bacteria/50 μL). Perform 1/10 serial dilutions in LB of each bacterial suspension, plate 10 μL of dilutions on LB agar plates (final dilutions of 10^−7) and incubate overnight at 37° C. and count CFUs to determine the actual bacteria density in the assay.
Bacterial binding assay: Add 147 μL 2× binding buffer to compound plate (containing 3 μL of compound). After blocking step is performed (at least 45 min), wash plates three times with 200 μL/well of D-PBS. With a 100 μL multichannel manual pipettor, add 50 µL/well of compound diluted in 2× binding buffer. With a 100 μL multichannel manual pipettor, add 50 μL/well of bacterial suspension. Agitate at slow speed for 1 min and incubate 40-75 min at room temperature. Wash 5 times with 150 μL/well of washing buffer and then once with D-PBS. Add 100 μL/well of 1× Bright-Glo Luciferase substrate. […]
`OC[C@H]1O[C@H](C#Cc2ccc(C#C[C@H]3O[C@H](CO)[C@@H](O)[C@H](O)C3O)cc2)[C@@H](O)[C@@H](O)[C@@H]1O` (stereo in doubt) [Compound 69, (2R,3 S,4R,5R,6R)-2-(hydroxymethyl)-6-[2-[4-[2-[(2R,3 S,4R,5 S,6R)-3,4,5-trihydroxy-6-(hydroxymethyl)tetrahydropyran-2-yl]ethynyl]phenyl]ethynyl]tetrahydropyran-3,4,5-triol] gave an IC50 of 66 nM.
`OC[C@H]1O[C@H](c2ccc(-c3ccc([C@H]4O[C@H](CO)[C@@H](O)[C@H](O)[C@@H]4O)cc3F)cc2)[C@@H](O)[C@@H](O)[C@@H]1O` [Compound 62] showed an IC50 of 67 nM.
`Cc1cc([C@H]2O[C@H](CO)[C@@H](O)[C@H](O)[C@@H]2O)ccc1-c1ccc([C@H]2O[C@H](CO)[C@@H](O)[C@H](O)[C@@H]2O)cc1` [Compound 63] showed an IC50 of 112 nM.
`Cc1cc(-c2ccc([C@H]3O[C@H](CO)[C@@H](O)[C@H](O)[C@@H]3O)cc2)ccc1[C@H]1O[C@H](CO)[C@@H](O)[C@H](O)[C@@H]1O` [Compound 64] showed an IC50 of 15 nM.
Compound `OC[C@H]1O[C@H](c2ccc(-c3ccc(-c4ccc([C@H]5O[C@H](CO)[C@@H](O)[C@H](O)[C@@H]5O)cc4)cc3)cc2)[C@@H](O)[C@@H](O)[C@@H]1O` [Compound 65] has an IC50 of 55 nM.
For `OC[C@H]1O[C@H](c2ccc(-c3cccc(-c4ccc([C@H]5O[C@H](CO)[C@@H](O)[C@H](O)[C@@H]5O)cc4)c3)cc2)[C@@H](O)[C@@H](O)[C@@H]1O` [Compound 66], the IC50 was 34 nM.
With `COc1cc([C@H]2O[C@H](CO)[C@@H](O)[C@H](O)[C@@H]2O)ccc1-c1ccc([C@H]2O[C@H](CO)[C@@H](O)[C@H](O)[C@@H]2O)cc1` [Compound 67] the IC50 was 40 nM.
`Cc1cc(-c2ccc([C@H]3O[C@H](CO)[C@@H](O)[C@H](O)[C@@H]3O)c(C)c2)ccc1[C@H]1O[C@H](CO)[C@@H](O)[C@H](O)[C@@H]1O` [Compound 68] gave an IC50 of 7.7 nM.
`CC(C)(C#N)c1cc(C#C[C@H]2O[C@H](CO)[C@@H](O)[C@H](O)[C@@H]2O)ccc1C#C[C@H]1O[C@H](CO)[C@@H](O)[C@H](O)[C@@H]1O` [Compound 70] showed an IC50 of 15 nM.
With `COc1cc(C#C[C@H]2O[C@H](CO)[C@@H](O)[C@H](O)[C@@H]2O)ccc1C#C[C@H]1O[C@H](CO)[C@@H](O)[C@H](O)[C@@H]1O` [Compound 71] the IC50 was 28 nM.
In the case of `CCCCc1cc(C#C[C@H]2O[C@H](CO)[C@@H](O)[C@H](O)[C@@H]2O)ccc1C#C[C@H]1O[C@H](CO)[C@@H](O)[C@H](O)[C@@H]1O` [Compound 72], the IC50 is reported as 18 nM.
`CCc1cc(C#C[C@H]2O[C@H](CO)[C@@H](O)[C@H](O)[C@@H]2O)cc(CC)c1C#C[C@H]1O[C@H](CO)[C@@H](O)[C@H](O)[C@@H]1O` [Compound 73] was tested, and the IC50 was 21 nM.
With `COCCc1cc(C#C[C@H]2O[C@H](CO)[C@@H](O)[C@H](O)[C@@H]2O)ccc1C#C[C@H]1O[C@H](CO)[C@@H](O)[C@H](O)[C@@H]1O` [Compound 74] the IC50 was 8.1 nM.
With `OC[C@H]1O[C@H](C#Cc2ccc(C#C[C@H]3O[C@H](CO)[C@@H](O)[C@H](O)[C@@H]3O)c(Cl)c2Cl)[C@@H](O)[C@@H](O)[C@@H]1O` [Compound 75] the IC50 was 76 nM.
Compound `CC(C)c1cc(C#C[C@H]2O[C@H](CO)[C@@H](O)[C@H](O)[C@@H]2O)c(C(C)C)cc1C#C[C@H]1O[C@H](CO)[C@@H](O)[C@H](O)[C@@H]1O` [Compound 76] has an IC50 of 46 nM.
In the case of `OC[C@H]1O[C@H](C#Cc2ccc(C#C[C@H]3O[C@H](CO)[C@@H](O)[C@H](O)[C@@H]3O)c(-c3ccccc3)c2)[C@@H](O)[C@@H](O)[C@@H]1O` [Compound 77, (2R,3S,4R,5S,6R)-2-(hydroxymethyl)-6-[2-[3-phenyl-4-[2-[(2R,3S,4R,5S,6R)-3,4,5-trihydroxy-6-(hydroxymethyl)tetrahydropyran-2-yl]ethynyl]phenyl]ethynyl]tetrahydropyran-3,4,5-triol], the IC50 is reported as 4 nM.
In the case of `OC[C@H]1O[C@H](C#Cc2ccc(C#C[C@H]3O[C@H](CO)[C@@H](O)[C@H](O)[C@@H]3O)c(F)c2F)[C@@H](O)[C@@H](O)[C@@H]1O` [Compound 78, (2R,3S,4R,5S,6R)-2-[2-[2,3-difluoro-4-[2-[(2R,3S,4R,5S,6R)-3,4,5-trihydroxy-6-(hydroxymethyl)tetrahydropyran-2-yl]ethynyl]phenyl]ethynyl]-6-(hydroxymethyl)tetrahydropyran-3,4,5-triol], the IC50 is reported as 63 nM.
`COCc1cc(C#C[C@H]2O[C@H](CO)[C@@H](O)[C@H](O)[C@@H]2O)ccc1C#C[C@H]1O[C@H](CO)[C@@H](O)[C@H](O)[C@@H]1O` [Compound 79, (2R,3S,4R,5S,6R)-2-(hydroxymethyl)-6-[2-[3-(methoxymethyl)-4-[2-[(2R,3S,4R,5S,6R)-3,4,5-trihydroxy-6-(hydroxymethyl)tetrahydropyran-2-yl]ethynyl]phenyl]ethynyl]tetrahydropyran-3,4,5-triol] was tested, and the IC50 was 37 nM.
In the case of `OC[C@H]1O[C@H](C#Cc2ccc(C#C[C@H]3O[C@H](CO)[C@@H](O)[C@H](O)[C@@H]3O)c(OCc3ccccc3)c2)[C@@H](O)[C@@H](O)[C@@H]1O` [Compound 80, (2R,3S,4R,5S,6R)-2-[2-[3-benzyloxy-4-[2-[(2R,3S,4R,5S,6R)-3,4,5-trihydroxy-6-(hydroxymethyl)tetrahydropyran-2-yl]ethynyl]phenyl]ethynyl]-6-(hydroxymethyl)tetrahydropyran-3,4,5-triol], the IC50 is reported as 11 nM.
Work on `OC[C@H]1O[C@H](C#Cc2cc(-c3ccccc3)c(C#C[C@H]3O[C@H](CO)[C@@H](O)[C@H](O)[C@@H]3O)cc2-c2ccccc2)[C@@H](O)[C@@H](O)[C@@H]1O` [Compound 81, (2R,3S,4R,5S,6R)-2-[2-[2,5-dipheny1-4[2-[(2R,3S,4R,5S,6R)-3,4,5-trihydroxy-6-(hydroxymethyl)tetrahydropyran-2-yl]ethynyl]phenyl]ethynyl]-6-(hydroxymethyl)tetrahydropyran-3,4,5-triol] yielded an IC50 of 9 nM.
Work on `CCCCCCc1cc(C#C[C@H]2O[C@H](CO)[C@@H](O)[C@H](O)[C@@H]2O)c(CCCCCC)cc1C#C[C@H]1O[C@H](CO)[C@@H](O)[C@H](O)[C@@H]1O` [Compound 82, (2R,3S,4R,5S,6R)-2-[2-[2,5-dihexyl-4-[2-[(2R,3S,4R,5S,6R)-3,4,5-trihydroxy-6-(hydroxymethyl)tetrahydropyran-2-yl]ethynyl]phenyl]ethynyl]-6-(hydroxymethyl)tetrahydropyran-3,4,5-triol] yielded an IC50 of 18 nM.
In the case of `CC(C)Oc1cc(C#C[C@H]2O[C@H](CO)[C@@H](O)[C@H](O)[C@@H]2O)ccc1C#C[C@H]1O[C@H](CO)[C@@H](O)[C@H](O)[C@@H]1O` [Compound 83, (2R,3S,4R,5S,6R)-2-(hydroxymethyl)-6-[2-[3-isopropoxy-4-[2-[(2R,3S,4R,5S,6R)-3,4,5-trihydroxy-6-(hydroxymethyl)tetrahydropyran-2-yl]ethynyl]phenyl]ethynyl]tetrahydropyran-3,4,5-triol], the IC50 is reported as 3.8 nM.
